Reference: patent US20230127906A1, “FORMULATIONS FOR EXTENDING LIFESPAN AND HEALTHSPAN” (Buck Institute for Research on Aging, priority 2017, published 2023)
Entries after “also recorded” stand apart in the source; their conditions may differ.

Experiments:
C57BL/6J mice = assay: 31-item clinical frailty index in aged mice (total score and individual metrics); type: in vivo; settings: for alopecia scores (hair loss): four month treatment starting at 18 months of age, FIG. 35; for piloerection: four month treatment, FIG. 37
From the text: C57BL/6J mice of both sexes are aged in group caging in an approved animal facility. Mice are maintained on a 12-hour light/dark cycle, with free access to food and water. In general, initiation of interventions occurs in mice after 12 months of age and is maintained throughout the lifespan of the mice. However, short term or periodic interventional strategies may also be tested.
Mice are randomly assigned to either treatment or control group, and administered compositions of active agents or placebo (control) in food for a sufficient treatment period to observe effects on frailty characteristics.
Mice are periodically evaluated on the 31-item clinical frailty index previously described herein. This was first reported by Whitehead et al. (Journals of Gerontology: BIOLOGICAL SCIENCES, 69:621-632; 2014). This has been used in studies recently as a valuable metric of mouse frailty that involves non-invasive scoring ideal for longitudinal studies and corresponds well with the onset of human frailty (Rockwood et al., Scientific Reports, 7, 43068, 2017).
The 31 point metric for assessment of animal frailty is included in the following table:
For all individual frailty metrics shown, a similar strategy was used to assess frailty score. Using a double blind method, scorers were asked to assess the relative score of each animal either as 0 (healthy), 0.5 (moderately unhealthy) and 1 (unhealthy). For total frailty, all 31 metrics are added and divided by 31. For cohort 2, we report the total frailty score simply as the sum of all 31 metrics without normalization.
Loss of fur color and appearance of grey hair is used interchangeably.
Alopecia or hair loss is used interchangeably.
Kyphosis is a measure of exaggerated outward curvature of the lower cervical/thoracic vertebral column, and can reflect either loss of bone density or increased muscle weakness.
Tremors are a measure of involuntary shaking at rest or during movement. Dermatitis is a routine occurrence in aging C57/B16 mice.
Piloerection is defined as involuntary hair bristling and can be thought of similarly to “goose bumps.” This increases with age and can be triggered by coldness, reflecting an inability of the mice to maintain body temperature.
Mice are randomly assigned to either treatment or control group, and administered compositions comprising Ca-AKG or placebo in food for a sufficient treatment period to observe effects on frailty characteristics.
Mice are periodically evaluated on the 31-item clinical frailty index previously described herein.

IMR-90 fibroblasts = assay: Cell senescence assay, irradiated cells, β-galactosidase; type: cell-based; settings: cells pre-treated prior to irradiation, FIG. 12
Procedure: To measure the effects of Ca-AKG on cell senescence, IMR-90 fibroblasts in culture were exposed to gamma-irradiation either after pretreatment with AKG or prior to (post) treatment with Ca-AKG. Cell senescence was measured by β-Galactosidase fluorescence.

inflammatory cytokines = assay: Inflammatory cytokine levels in aged mice; type: in vivo; settings: three month treatment starting at 18 months of age, animals at 21 months, Cohort 2, FIG. 24

SMILES | alopecia scores (hair loss) (C57BL/6J mice; female mice) | piloerection (C57BL/6J mice; female mice) | fur color (coat color) (C57BL/6J mice; female mice, four months treatment starting at 18 months of age, FIG. 36) | frailty scores (frailty index) (C57BL/6J mice; female mice, two months of treatment, Cohort 2, FIG. 10A) | kyphosis index (C57BL/6J mice; male and female mice combined, two months treatment starting at 18 months of age, FIG. 34) | frailty scores (frailty index) (C57BL/6J mice; male mice, 2 months of treatment, Cohort 2, FIG. 10C) | grey hair (C57BL/6J mice; female mice, measured at 23 months of life, Cohort 1, FIG. 18) | hair loss (C57BL/6J mice; relative to control mice, Cohort 1, FIG. 20, 21) | kyphosis (C57BL/6J mice; relative to control mice, Cohort 1, FIG. 22) | tremors (C57BL/6J mice; relative to control mice, Cohort 1, FIG. 23) | coat graying / grey hair (C57BL/6J mice; vs placebo/control mice, Cohort 1, FIG. 11, 19, 20) | cell senescence, senescence-associated β-galactosidase (beta gal) (IMR-90 fibroblasts) | levels of inflammatory cytokines (inflammatory cytokines)
CCCCCCCCCCCCCCCC(=O)OC/C=C(C)/C=C/C=C(C)/C=C/C1=C(C)CCCC1(C)C [RP, retinyl palmitate] | neither Ca-AKG nor RP had significant effects on their own | Neither compound alone had an effect |  |  |  |  |  |  |  |  |  |  | 
C=C1CC[C@H](O)C/C1=C/C=C1\CCC[C@]2(C)[C@@H]([C@H](C)CCCC(C)C)CC[C@@H]12 [vitamin D3] | sufficient to reduce alopecia |  | younger coat color | lower frailty | reduce the kyphosis index significantly | no significant reduction in frailty |  |  |  |  |  |  | 
O=C([O-])CCC(=O)C(=O)[O-].[Ca+2] [Ca-AKG, calcium α-ketoglutarate] | neither Ca-AKG nor RP had significant effects on their own | Neither compound alone had an effect |  |  |  |  | reduction in grey hair | reduced hair loss; also recorded: reduction in hair loss | reduction in kyphosis | reduction in tremors | dramatically reduced; also recorded: less grey hair than the control mouse; also recorded: less gray hair | protected cells from irradiation-induced senescence; also recorded: decreases relative to control | prevents, or in some cases even reverses, the increase in levels of inflammatory cytokines
